Where two headings read alike, the source gives them in different places.

This is an account of results in US20240287123A1 (Victoria Link Limited, priority 2021, published 2024).

Series [1] relates to HCMV (AD169 strain in HFF cells). Put plainly: CPE (cytopathic effect) assay for HCMV. The series is classed as cell-based, Human Cytomegalovirus. The method, then:
Human foreskin fibroblast (HFF) cells prepared from human foreskin tissue were obtained from the University of Alabama at Birmingham tissue procurement facility with approval from its IRB. The tissue was incubated at 4° C. for 4 h in Clinical Medium consisting of minimum essential media (MEM) with Earl's salts supplemented with 10% fetal bovine serum (FBS) (Hyclone, Inc. Logan UT), L-glutamine, fungizone, and vancomycin. Tissue was then placed in phosphate buffered saline (PBS), minced, rinsed to remove the red blood cells, and resuspended in trypsin/EDTA solution. The tissue suspension was incubated at 37° C. and gently agitated to disperse the cells, which were collected by centrifugation. Cells were resuspended in 4 ml Clinical Medium and placed in a 25 cm^2 flask and incubated at 37° C. in a humidified CO2 incubator for 24 h. The media was then replaced with fresh Clinical Medium and the cell growth was monitored daily until a confluent monolayer had formed. The HFF cells were then expanded through serial passages in standard growth medium of MEM with Earl's salts supplemented with 10% FBS, L-glutamine, penicillin, and gentamycin.
Akata cells were obtained from Louisiana State University, Baton Rouge, LA. The HCMV strain AD169 was obtained from the American Type Culture Collection (ATCC, Manassas, VA). Akata cells latently infected with EBV were obtained from Louisiana State University, Baton Rouge, LA.
Each experiment that evaluates the antiviral activity of compounds includes both positive and negative control compounds to ensure the performance of each assay. Concurrent assessment of cytotoxicity was also performed for each study in the same cell line and with the same compound exposure.
Assays were performed in monolayers as described.37 Cells were seeded in 384 well plates and incubated for 24 h to allow the formation of confluent monolayers. Dilutions of test drug were prepared directly in the plates and the monolayers infected at a predetermined MOI based on virus used. After incubation, cytopathology was determined by the addition of CellTiter-Glo (CTG) reagent. […] Toxicity was measured using CTG as above.

The test system of another series is primary human MDM. Put plainly: Toxicity to MDM: LDH assay and light microscopy. It is filed as cell-based. The method, then:
Light microscopy was used to image MDMs on day 7 of infection. […] Colorimetric LDH assays were also performed on culture supernatants from these same cells on day 4 of infection to assess cell death.
At the end of each experiment, cells were imaged by light microscopy. After aspirating off media, cells were washed with PBS, and lysates were harvested in extraction buffer containing 0.1% Formic acid, 50% ACN, 40% MeOH, 10% H2O.
Drug toxicity was analyzed using an LDH assay kit according to manufacturer's instructions (Abcam #ab65393, Toronto, Canada). Briefly, supernatants from duplicate plates per treatment condition were added to a 96-well plate. Each supernatant was run in triplicate. Provided assay buffer was added to culture supernatants after mixing with a substrate solution that turns orange upon lactate exposure. After incubation for 30-45 min, colorimetric signal was quantified an OD of 450 nm. LDH was a positive control as well as cells lysed with 10% lysis buffer in media representing the “high control” to which % cytotoxicity was measured. The reference sample was either control uninfected cells treated with DMSO or negative control HIV-infected cells treated with DMSO. Culture media alone was used as a technical negative control. This background signal that was subtracted from all test wells.

Regarding `CC(C)C(=O)OCC1=C[C@@H](O)[C@H](n2ccc(N)nc2=O)O1` [Compound 8, 3′-Deoxy-3′,4′-didehydro-5′-O-isobutyroyl-cytidine], the EC50 is about 20 nM in series [1] (Human betaherpesvirus 5, AD169, HFF, approximate, read-out: EC50 against HCMV) and 20 nM in series [1] (Human betaherpesvirus 5, AD169 strain in HFF cells, Table 1, read-out: HCMV EC50). In addition, the “LDH activity in HIV-infected MDMs relative to DMSO controls” value in the series with primary human MDM (100 μM, day 4 of infection) is reported as “nearly identical”. For the same compound, the “LDH activity relative to uninfected DMSO controls” value in the series with primary human MDM (100 μM, uninfected or HIV-infected MDMs, day 4 of infection) was “no significant difference”. The “toxicity to MDMs” value with primary human MDM (100 uM, visual inspection by light microscopy and colorimetric LDH assays) is given as “non-toxic”.
